Assay results as given in patent US10112926B2 (priority 2014, dated 2018).
Structures can show the parent of a compound that is named as a salt.

Tests used:
[1] = molecular target: PI 3-kinase alpha (Homo sapiens (Human), UniProt P42336); settings: read-out: Assay A PI3Kα IC50
[2] = molecular target: Vps34 (Homo sapiens (Human), UniProt Q8NEB9); settings: read-out: Assay C VPS34 IC50
[3] = molecular target: mTOR (Homo sapiens (Human), UniProt P42345); settings: read-out: Assay G mTOR IC50
[4] = molecular target: PI 4-kinase beta (Homo sapiens (Human), UniProt Q9UBF8); settings: read-out: Assay D PI4Kβ IC50
Chain of PI 4-kinase beta (Q9UBF8 whole entry): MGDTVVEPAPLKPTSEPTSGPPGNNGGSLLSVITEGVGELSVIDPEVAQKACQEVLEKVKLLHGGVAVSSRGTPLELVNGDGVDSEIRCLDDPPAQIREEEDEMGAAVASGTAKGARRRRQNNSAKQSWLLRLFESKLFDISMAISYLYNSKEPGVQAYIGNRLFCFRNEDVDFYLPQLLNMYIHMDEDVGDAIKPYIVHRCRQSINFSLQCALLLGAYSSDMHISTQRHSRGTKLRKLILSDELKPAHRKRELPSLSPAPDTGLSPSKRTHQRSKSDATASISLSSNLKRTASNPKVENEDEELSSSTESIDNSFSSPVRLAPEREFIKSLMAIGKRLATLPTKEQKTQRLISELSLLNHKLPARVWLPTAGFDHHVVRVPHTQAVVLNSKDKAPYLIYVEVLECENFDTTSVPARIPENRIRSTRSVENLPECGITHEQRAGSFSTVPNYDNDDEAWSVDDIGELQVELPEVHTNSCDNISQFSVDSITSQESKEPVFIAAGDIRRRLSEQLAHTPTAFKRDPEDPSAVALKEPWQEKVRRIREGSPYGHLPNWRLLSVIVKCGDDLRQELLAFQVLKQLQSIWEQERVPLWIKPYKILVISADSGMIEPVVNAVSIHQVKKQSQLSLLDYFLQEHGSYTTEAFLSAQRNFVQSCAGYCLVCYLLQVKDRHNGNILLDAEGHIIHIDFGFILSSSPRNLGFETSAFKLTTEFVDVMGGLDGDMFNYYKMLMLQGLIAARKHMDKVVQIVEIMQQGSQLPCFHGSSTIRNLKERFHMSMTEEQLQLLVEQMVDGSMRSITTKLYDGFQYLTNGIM

[5] = molecular target: PI 3-kinase beta (Homo sapiens (Human), UniProt P42338); settings: read-out: Assay B PI3Kβ IC50
Chain of PI 3-kinase beta (P42338 whole entry, looked up): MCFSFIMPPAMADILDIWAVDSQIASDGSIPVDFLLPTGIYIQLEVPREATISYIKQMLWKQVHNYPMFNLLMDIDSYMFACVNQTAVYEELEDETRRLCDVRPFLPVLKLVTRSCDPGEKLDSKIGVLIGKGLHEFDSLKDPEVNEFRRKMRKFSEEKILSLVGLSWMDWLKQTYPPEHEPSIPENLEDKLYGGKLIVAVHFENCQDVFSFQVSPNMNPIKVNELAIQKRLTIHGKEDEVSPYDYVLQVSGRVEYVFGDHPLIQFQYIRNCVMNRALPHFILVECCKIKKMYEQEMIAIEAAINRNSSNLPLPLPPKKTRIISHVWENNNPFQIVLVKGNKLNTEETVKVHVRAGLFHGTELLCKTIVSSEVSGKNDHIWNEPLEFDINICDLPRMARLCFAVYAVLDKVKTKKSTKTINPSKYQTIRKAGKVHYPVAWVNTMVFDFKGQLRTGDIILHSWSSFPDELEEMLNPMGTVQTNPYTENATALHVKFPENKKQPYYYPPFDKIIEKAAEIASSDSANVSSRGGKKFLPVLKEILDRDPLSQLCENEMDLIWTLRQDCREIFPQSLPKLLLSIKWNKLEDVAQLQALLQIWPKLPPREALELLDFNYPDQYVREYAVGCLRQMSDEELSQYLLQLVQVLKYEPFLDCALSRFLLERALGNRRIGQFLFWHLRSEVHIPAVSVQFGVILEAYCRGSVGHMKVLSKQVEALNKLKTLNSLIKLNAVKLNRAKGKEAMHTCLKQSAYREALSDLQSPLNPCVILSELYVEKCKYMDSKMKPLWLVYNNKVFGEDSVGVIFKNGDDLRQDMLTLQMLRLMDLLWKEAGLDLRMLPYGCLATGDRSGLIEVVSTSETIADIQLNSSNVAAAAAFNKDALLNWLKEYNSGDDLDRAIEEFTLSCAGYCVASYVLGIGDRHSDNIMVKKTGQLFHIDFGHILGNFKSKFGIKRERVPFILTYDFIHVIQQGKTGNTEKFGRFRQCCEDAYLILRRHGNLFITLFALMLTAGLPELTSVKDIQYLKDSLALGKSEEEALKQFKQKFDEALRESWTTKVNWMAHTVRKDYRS
Chain of PI 3-kinase beta (P27986 whole entry partner, looked up): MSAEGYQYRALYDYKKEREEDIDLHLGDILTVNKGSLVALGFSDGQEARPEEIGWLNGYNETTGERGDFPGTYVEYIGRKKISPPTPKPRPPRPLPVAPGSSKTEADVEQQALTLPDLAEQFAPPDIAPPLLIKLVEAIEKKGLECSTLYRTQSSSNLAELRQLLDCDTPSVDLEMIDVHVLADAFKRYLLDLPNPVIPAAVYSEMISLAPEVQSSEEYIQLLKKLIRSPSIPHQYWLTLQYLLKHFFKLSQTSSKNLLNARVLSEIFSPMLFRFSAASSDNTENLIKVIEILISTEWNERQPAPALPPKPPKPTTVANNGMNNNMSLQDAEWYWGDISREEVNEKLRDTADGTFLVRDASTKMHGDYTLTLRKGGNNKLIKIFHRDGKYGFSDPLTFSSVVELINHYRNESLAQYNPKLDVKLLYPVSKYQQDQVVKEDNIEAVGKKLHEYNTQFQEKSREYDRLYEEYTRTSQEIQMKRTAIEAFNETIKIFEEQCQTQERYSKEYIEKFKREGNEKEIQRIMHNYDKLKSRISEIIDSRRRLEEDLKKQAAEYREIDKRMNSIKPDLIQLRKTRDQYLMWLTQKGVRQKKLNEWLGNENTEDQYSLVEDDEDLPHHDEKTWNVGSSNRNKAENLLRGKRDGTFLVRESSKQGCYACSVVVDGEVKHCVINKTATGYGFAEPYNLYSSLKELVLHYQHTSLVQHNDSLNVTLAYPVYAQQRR

Chain of Vps34 (Q8NEB9 whole entry): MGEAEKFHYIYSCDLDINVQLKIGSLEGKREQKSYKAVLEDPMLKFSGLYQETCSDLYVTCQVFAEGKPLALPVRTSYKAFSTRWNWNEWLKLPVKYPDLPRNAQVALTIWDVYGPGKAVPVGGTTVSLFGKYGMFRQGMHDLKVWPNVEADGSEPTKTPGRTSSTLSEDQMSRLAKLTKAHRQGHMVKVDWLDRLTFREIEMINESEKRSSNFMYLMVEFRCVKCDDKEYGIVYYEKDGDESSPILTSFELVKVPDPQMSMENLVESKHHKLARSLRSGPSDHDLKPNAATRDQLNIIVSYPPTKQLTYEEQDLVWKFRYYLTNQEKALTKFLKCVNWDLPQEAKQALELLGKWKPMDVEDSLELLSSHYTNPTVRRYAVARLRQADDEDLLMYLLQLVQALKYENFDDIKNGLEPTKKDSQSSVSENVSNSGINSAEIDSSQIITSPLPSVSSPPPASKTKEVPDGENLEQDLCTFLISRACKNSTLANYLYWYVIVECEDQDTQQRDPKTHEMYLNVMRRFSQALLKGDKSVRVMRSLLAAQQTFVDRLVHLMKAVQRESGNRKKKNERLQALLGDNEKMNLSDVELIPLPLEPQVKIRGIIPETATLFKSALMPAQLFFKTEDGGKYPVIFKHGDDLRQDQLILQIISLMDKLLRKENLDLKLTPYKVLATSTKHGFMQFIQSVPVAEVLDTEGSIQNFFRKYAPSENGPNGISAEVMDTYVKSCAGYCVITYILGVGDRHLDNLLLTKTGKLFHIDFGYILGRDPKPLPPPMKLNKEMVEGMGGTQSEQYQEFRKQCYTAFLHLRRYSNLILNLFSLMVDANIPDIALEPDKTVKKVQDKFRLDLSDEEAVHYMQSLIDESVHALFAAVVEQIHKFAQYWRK
Chain of PI 3-kinase alpha (P42336 whole entry, looked up): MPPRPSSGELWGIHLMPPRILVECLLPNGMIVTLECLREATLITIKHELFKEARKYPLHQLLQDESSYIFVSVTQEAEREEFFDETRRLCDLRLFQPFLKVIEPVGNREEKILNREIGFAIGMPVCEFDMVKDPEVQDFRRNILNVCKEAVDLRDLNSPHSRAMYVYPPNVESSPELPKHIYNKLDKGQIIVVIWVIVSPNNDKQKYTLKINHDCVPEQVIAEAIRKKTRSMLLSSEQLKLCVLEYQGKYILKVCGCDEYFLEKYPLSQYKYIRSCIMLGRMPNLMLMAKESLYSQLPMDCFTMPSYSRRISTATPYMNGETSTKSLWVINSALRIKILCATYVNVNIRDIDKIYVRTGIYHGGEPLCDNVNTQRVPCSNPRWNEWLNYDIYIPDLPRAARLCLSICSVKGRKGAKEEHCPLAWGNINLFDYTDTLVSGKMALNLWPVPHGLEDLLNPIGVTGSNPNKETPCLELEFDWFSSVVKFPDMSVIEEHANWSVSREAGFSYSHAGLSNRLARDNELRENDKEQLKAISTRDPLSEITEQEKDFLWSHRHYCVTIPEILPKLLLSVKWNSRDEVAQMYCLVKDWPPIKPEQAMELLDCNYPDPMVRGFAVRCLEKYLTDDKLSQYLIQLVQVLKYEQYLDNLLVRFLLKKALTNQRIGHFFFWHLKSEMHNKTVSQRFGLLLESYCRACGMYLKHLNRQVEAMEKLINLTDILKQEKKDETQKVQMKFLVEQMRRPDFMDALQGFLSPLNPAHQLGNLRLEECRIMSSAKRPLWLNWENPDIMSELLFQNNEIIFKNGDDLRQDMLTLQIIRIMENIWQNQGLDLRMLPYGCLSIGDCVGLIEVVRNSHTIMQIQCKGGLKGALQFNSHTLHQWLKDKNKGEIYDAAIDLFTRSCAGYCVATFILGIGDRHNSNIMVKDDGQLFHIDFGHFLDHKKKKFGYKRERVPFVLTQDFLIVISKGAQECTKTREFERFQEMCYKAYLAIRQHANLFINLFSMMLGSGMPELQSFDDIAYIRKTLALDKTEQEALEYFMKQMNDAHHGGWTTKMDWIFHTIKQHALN
Chain of PI 3-kinase alpha (P27986 whole entry partner, looked up): as the sequence (P27986 whole entry partner, looked up) above

Structure (SMILES) | IC50 [1] [µM] | IC50 [2] [µM] | IC50 [3] [µM] | IC50 [4] [µM] | IC50 [5] [µM]
Cc1cc(-c2cc(-c3cc(S(=O)(=O)N[C@H]4CC[C@H](O)CC4)ccc3C)cnc2N)on1 [Example 5.4, trans 3-(6-Amino-5-(3-methylisoxazol-5-yl)pyridin-3-yl)-N-(-4-hydroxycyclohexyl)-4-methylbenzenesulfon-amide hydrochloride] | 0.25 | > 10 | – | – | –
Cc1noc(-c2cc(-c3cc(S(=O)(=O)N[C@H]4CC[C@H](O)CC4)ccc3C)cnc2N)n1 [Example 12, trans 3-[6-Amino-5-(3-methyl-[1,2,4]oxadiazol-5-yl)-pyridin-3-yl]-N-(4-hydroxy-cyclohexyl)-4-methyl-benzenesulfonamide, hydrochloride salt] | – | > 10 | > 10 | 5.3 | –
Cc1ncc(-c2cc(-c3cc(S(=O)(=O)NCCC(C)(C)O)ccc3C)cnc2N)o1 [Example 13, 3-[6-Amino-5-(2-methyl-oxazol-5-yl)-pyridin-3-yl]-N-(3-hydroxy-3-methyl-butyl)-4-methyl-benzenesulfonamide, hydrochloride salt] | – | > 10 | 1.6 | 4.4 | –
Cc1ccc(S(=O)(=O)NCCC(C)(C)O)cc1-c1cnc(N)c(-c2ccncc2)c1 [Example 18, 3-(2-Amino-[3,4′]bipyridinyl-5-yl)-N-(3-hydroxy-3-methyl-butyl)-4-methyl-benzenesulfonamide] | – | > 9.1 | > 9.1 | > 9.1 | –
Cc1noc(-c2cc(-c3cc(S(=O)(=O)N[C@H]4CC[C@H](CO)CC4)ccc3C)cnc2N)n1 [Example 19, trans 3-[6-Amino-5-(3-methyl-[1,2,4]oxadiazol-5-yl)-pyridin-3-yl]-N-(4-hydroxymethyl-cyclohexyl)-4-methyl-benzenesulfonamide hydrochloride] | – | > 10 | > 10 | 1.3 | –
Cc1noc(-c2cc(-c3cc(S(=O)(=O)NCC4CCOC4)ccc3C)cnc2N)n1 (centres unmarked) [Example 29, 3-(6-Amino-5-(3-methyl-1,2,4-oxadiazol-5-yl)pyridin-3-yl)-4-methyl-N-((tetrahydrofuran-3-yl)methyl)benzenesulfonamide] | – | > 10 | > 10 | 9.9 | –
Cc1noc(-c2cc(-c3cc(S(=O)(=O)NCCC4(O)CCCC4)ccc3C)cnc2N)n1 [Example 37.11, 3-(6-Amino-5-(3-methyl-1,2,4-oxadiazol-5-yl)pyridin-3-yl)-N-(2-(1-hydroxycyclopentyl)ethyl)-4-methylbenzenesulfonamide] | – | > 10 | > 10 | 8.1 | –
Cc1noc(-c2cc(-c3cc(S(=O)(=O)NCC4(CO)CCCC4)ccc3C)cnc2N)n1 [Example 37.13, 3-(6-Amino-5-(3-methyl-1,2,4-oxadiazol-5-yl)pyridin-3-yl)-N-((1-(hydroxymethyl)cyclopentyl)methyl)-4-methylbenzenesulfonamide] | – | > 10 | > 10 | 5 | –
Cc1noc(-c2cc(-c3cc(S(=O)(=O)NCC4(O)CCC4)ccc3C)cnc2N)n1 [Example 37.15, 3-(6-Amino-5-(3-methyl-1,2,4-oxadiazol-5-yl)pyridin-3-yl)-N-((1-hydroxycyclobutyl)methyl)-4-methylbenzenesulfonamide] | – | > 10 | > 10 | 5.4 | –
Cc1noc(-c2cc(-c3cc(S(=O)(=O)NCC(C)(C)CO)ccc3C)cnc2N)n1 [Example 37.18, 3-(6-Amino-5-(3-methyl-1,2,4-oxadiazol-5-yl)pyridin-3-yl)-N-(3-hydroxy-2,2-dimethylpropyl)-4-methylbenzenesulfonamide hydrochloride] | – | > 10 | > 10 | > 10 | –
Cc1noc(-c2cc(-c3cc(S(=O)(=O)NCC4(CO)CCC4)ccc3C)cnc2N)n1 [Example 37.26, 3-(6-Amino-5-(3-methyl-1,2,4-oxadiazol-5-yl)pyridin-3-yl)-N-((1-(hydroxymethyl)cyclobutyl)methyl)-4-methylbenzenesulfonamide] | – | > 10 | > 10 | > 10 | –
Cc1cc(-c2cc(-c3cc(S(=O)(=O)N4CC(C)(O)C4)ccc3C)cnc2N)on1 [Example 37.28, 1-((3-(6-Amino-5-(3-methylisoxazol-5-yl)pyridin-3-yl)-4-methylphenyl)sulfonyl)-3-methylazetidin-3-ol] | – | > 10 | – | 2.8 | 3.8
Cc1noc(-c2cc(-c3cc(S(=O)(=O)N4CC(CO)C4)ccc3C)cnc2N)n1 [Example 37.39, (S)-((3-(6-Amino-5-(3-methyl-1,2,4-oxadiazol-5-yl)pyridin-3-yl)-4-methylphenyl)sulfonyl)azetidin-3-yl)methanol] | – | > 10 | > 10 | 4.8 | –
Cc1cc(-c2cc(-c3cc(S(=O)(=O)NC[C@@H]4CCCO4)ccc3C)cnc2N)on1 [Example 40, (S)-3-(6-Amino-5-(3-methylisoxazol-5-yl)pyridin-3-yl)-4-methyl-N-((tetrahydrofuran-2-yl)methyl)benzenesulfonamide] | – | > 10 | – | 3.2 | 4
CCCONS(=O)(=O)c1ccc(C)c(-c2cnc(N)c(-c3nc(C)no3)c2)c1 [Example 44, 3-(6-Amino-5-(3-methyl-1,2,4-oxadiazol-5-yl)pyridin-3-yl)-4-methyl-N-propoxybenzenesulfonamide] | – | > 10 | > 10 | 3.55 | –
Cc1noc(-c2cc(-c3cc(S(=O)(=O)NOC(C)C)ccc3C)cnc2N)n1 [Example 45, 3-(6-Amino-5-(3-methyl-1,2,4-oxadiazol-5-yl)pyridin-3-yl)-N-isopropoxy-4-methylbenzenesulfonamide] | – | > 10 | 9.1 | 7.4 | –
Cc1noc(-c2cc(-c3cc(S(=O)(=O)NOC(C)(C)C)ccc3C)cnc2N)n1 [Example 47, 3-(6-Amino-5-(3-methyl-1,2,4-oxadiazol-5-yl)pyridin-3-yl)-N-(tert-butoxy)-4-methylbenzenesulfonamide] | – | > 10 | 4 | 4.4 | –
Cc1noc(-c2cc(-c3cc(S(=O)(=O)NCCC(F)(F)F)ccc3C)cnc2N)n1 [Example 48, 3-(6-Amino-5-(3-methyl-1,2,4-oxadiazol-5-yl)pyridin-3-yl)-4-methyl-N-(3,3,3-trifluoropropyl)benzenesulfonamide] | – | > 10 | > 10 | 6 | –
Cc1noc(-c2cc(-c3cc(S(=O)(=O)NC4CCOCC4)ccc3C)cnc2N)n1 [Example 49, 3-(6-Amino-5-(3-methyl-1,2,4-oxadiazol-5-yl)pyridin-3-yl)-4-methyl-N-(tetrahydro-2H-pyran-4-yl)benzenesulfonamide] | – | > 10 | 8.1 | 6.8 | –
Cc1cnn(-c2cc(-c3cc(S(=O)(=O)NCC(C)(C)O)ccc3C)cnc2N)c1 [Example 60, 3-(6-Amino-5-(4-methyl-1H-pyrazol-1-yl)pyridin-3-yl)-N-(2-hydroxy-2-methylpropyl)-4-methylbenzenesulfonamide] | – | > 10 | > 10 | – | > 10
Cc1ccc(S(=O)(=O)N[C@H]2CC[C@H](O)CC2)cc1-c1cnc(N)c(-c2nc(C(F)F)no2)c1 [Example 70, 3-(6-Amino-5-(3-(difluoromethyl)-1,2,4-oxadiazol-5-yl)pyridin-3-yl)-N-((1r,4r)-4-hydroxycyclohexyl)-4-methylbenzenesulfonamide hydrochloride] | – | > 10 | > 10 | 8.2 | –
Cc1cc(-c2cc(-c3cc(S(=O)(=O)N[C@H]4CC[C@H](CO)CC4)ccc3C)cnc2N)ccn1 [Example 77, trans-3-(2-Amino-2′-methyl-[3,4′-bipyridin]-5-yl)-N-(−4-(hydroxymethyl)cyclohexyl)-4-methylbenzenesulfonamide hydrochloride] | – | > 10 | > 10 | 2.1 | –
Cc1ccc(S(=O)(=O)NCC(C)(C)O)cc1-c1cnc(N)c(-c2nc(C3CC3)no2)c1 [Example 80, 3-(6-Amino-5-(3-cyclopropyl-1,2,4-oxadiazol-5-yl)pyridin-3-yl)-N-(2-hydroxy-2-methylpropyl)-4-methylbenzenesulfonamide hydrochloride] | – | > 10 | > 10 | 3.55 | –
Cc1cc(-c2cc(-c3cc(S(=O)(=O)NO[C@H]4C[C@H](O)C4)ccc3C)cnc2N)on1 [Example 95, trans-3-(6-amino-5-(3-methylisoxazol-5-yl)pyridin-3-yl)-N-((1r,3r)-3-hydroxycyclobutoxy)-4-methylbenzenesulfonamide] | – | > 10 | > 10 | 0.86 | –
Cc1ncc(-c2cc(-c3cc(S(=O)(=O)N[C@H]4CC[C@H](O)CC4)ccc3C)cnc2N)s1 [Example 97, 3-(6-amino-5-(2-methylthiazol-5-yl)pyridin-3-yl)-N-((1r,4r)-4-hydroxycyclohexyl)-4-methylbenzenesulfonamide] | – | 3.8 | 6.5 | 1.34 | –
Cc1ncc(-c2cc(-c3cc(S(=O)(=O)NCC4CCCOC4)ccc3C)cnc2N)o1 (centres unmarked) [Example 104.8, 3-(6-amino-5-(2-methyloxazol-5-yl)pyridin-3-yl)-4-methyl-N-((tetrahydro-2H-pyran-3-yl)methyl)benzenesulfon-amide] | – | 4.8 | – | 2 | 0.8
Cc1ccc(S(=O)(=O)NCCC(C)(C)O)cc1-c1cnc(N)c(-c2cnn(C)n2)c1 [Example 106, 3-(6-amino-5-(2-methyl-2H-1,2,3-triazol-4-yl)pyridin-3-yl)-N-(3-hydroxy-3-methylbutyl)-4-methylbenzenesulfonamide] | – | > 10 | 7.6 | 6.4 | –
